Experimental data published in US20030232400A1, “Methods of screening subjects for expression of soluble receptors of vascular endothelial growth factor (VEGF) for use in managing treatment and determining prognostic outcome” (priority 2002, published 2003).
“Also recorded” adds a separate entry of the source.

Assays:
[1] = system: metastatic colorectal cancer; conditions: cited from earlier work
[2] = system: LLC-HM primary tumor; assay: LLC-HM primary tumor model, preclinical studies in mice; assay type: in vivo
[3] = system: HEY ovarian, SK-MEL-1 melanoma and ACHN renal carcinoma cell lines; assay: Murine dermis model, peritumoral vessels; assay type: in vivo
[4] = system: human KM12 colorectal cancer xenograft; assay: Human KM12 colorectal cancer xenograft, metastasis; assay type: in vivo, mice
Source text: (§1) A reduction of metastasis in a human KM12 colorectal cancer xenograft and reduced metastasis and increase in survival in the murine mammary (4T1) model were also observed with ANGIOZYME treatment.

[5] = system: murine mammary (4T1) model; assay: Murine mammary (4T1) model; assay type: in vivo
Source text: as §1

[6] = Preclinical absorption after subcutaneous administration; assay type: in vivo; conditions: subcutaneous (SC) administration
Source text: as §1

[7] = 13-week toxicology studies; assay type: in vivo; conditions: doses up to 300 mg/m^2/d
[8] = Phase I clinical trials, tolerability; assay type: in vivo, human; conditions: doses up to 300 mg/m^2 administered IV or SC
[9] = system: late-stage metastatic breast cancer; assay: Phase II monotherapy trial RPI0001, tumor response; assay type: in vivo, human
Description: (§2) In a Phase II monotherapy ANGIOZYME trial, 45 late-stage metastatic breast cancer patients who had failed multiple prior treatments received 100 mg/m^2 ANGIOZYME by daily SC injection. Due of the critical nature of the disease, most progressed and discontinued drug at the first evaluation (week 6). […] Clinical and biomarker results are summarized.
(§3) In RPI0001, ANGIOZYME monotherapy decreased sVEGFR-1 levels in the metastatic breast cancer setting, although there were no responses in this late-stage disease population.

[10] = system: sVEGFR-1; assay: Phase II monotherapy trial RPI0001, sVEGFR-1 level; assay type: in vivo, human; conditions: monotherapy 100 mg/m^2 daily SC, metastatic breast cancer patients, by week 6
Description: as §2, §3

[11] = Phase II study RPI0003 (IFL + ANGIOZYME), adverse events; assay type: in vivo, human
Description: Beginning on study day 4, patients received daily doses of 100 mg/m^2 ANGIOZYME by subcutaneous injection. Unidimensional tumor measurements were obtained from CT scans after 12 and 24 weeks of treatment. Responses were then confirmed 4 weeks following initial response. ANGIOZYME treatment continued until disease progression.
Adverse event reporting for RPI0003 is ongoing for the 6 patients continuing to receive ANGIOZYME in the maintenance protocolis. […] One patient has discontinued RPI0003 due to an ISR.
Of the MedDRA organ system classes most likely to be affected by antiangiogenic drugs, only the vascular complications (DVT/PE) may appear in excess in this study. […] This observation was communicated to the FDA in September, 2002. Patients continue in the maintenance trial with all PEs and DVTs being classified as serious and ANGIOZYME-related to ensure complete reporting of these events.

irinotecan/5-fluorouracil/leucovorin [IFL]
response rate ([1]; IFL alone, patients who received IFL, good performance status, CT at 12 or 24 weeks): ~40% | Median time to progression (TTP) ([1]; IFL arm of the Pharmacia study): > 7.0 months | At least Stable at Week 12 ([1]; N = 192, Pharmacia 0038): 83% | At least Stable at Week 24 ([1]; N = 192, Pharmacia 0038): 80% | Best Overall Response (Week 24) ([1]; N = 192, Pharmacia 0038): 37% | Best Overall Response, Confirmed at Week 12 ([1]; N = 192, Pharmacia 0038): 35% | Best Overall Response, Unconfirmed at Week 12 ([1]; N = 192, Pharmacia 0038): 48% | Discontinued by Week 12 Due to Disease Progression ([1]; N = 192, Pharmacia 0038): 12%

ANGIOZYME: stabilized ribozyme that targets the pre-mRNA of vascular endothelial growth factor receptor-1 (VEGFR-1); structure in FIG. 8 (GAGUUGCUGAUGAGGCCGAAAGGCCGAAAGUCUG; stabilized ribozyme, chemical modifications not given here)
growth of the LLC-HM primary tumor [2]: inhibited the growth of the LLC-HM primary tumor in a dose-dependent manner | mean vascular density in tumor sections ([2]; LLC-HM model): decreased | number of lung metastases ([2]; LLC-HM model): reduced | interaction with interferon treatment [3]: synergistic | number of peritumoral vessels ([3]; HEY, SK-MEL-1, ACHN cell lines): reduced | metastasis [4]: reduction | metastasis [5]: reduced | survival [5]: increase | absorption [6]: well absorbed | tolerability [7]: well tolerated | tolerability [8]: well tolerated | tumor responses [9]: no responses | change in sVEGFR-1 [10]: significant decrease; also recorded: decreased | patients discontinued due to an injection site reaction (ISR) ([11]; RPI0003): One | tolerability ([11]; RPI0003, daily SC injection in combination with IFL): well tolerated | toxicity added to the chemotherapy ([11]; RPI0003, with the possible exception of increased vascular complications): added no toxicity | most frequent adverse experiences ([11]; RPI0003 and all other ANGIOZYME studies): injection site reactions
